Experimental data from patent US7186743B2, “Substituted pyrazolyl compounds for the treatment of inflammation” (Pharmacia Corporation, priority 2001, dated 2007).
pIC50: −log10 of the molar value. Read-outs that look alike come from different tables or passages of the source.

Target: T1, IKK2 (Homo sapiens, UniProt O14920)
T1 construct: made in house; host or cells: insect cells (baculovirus, pFastBac; SF9)
T1 sequence (O14920 1-756): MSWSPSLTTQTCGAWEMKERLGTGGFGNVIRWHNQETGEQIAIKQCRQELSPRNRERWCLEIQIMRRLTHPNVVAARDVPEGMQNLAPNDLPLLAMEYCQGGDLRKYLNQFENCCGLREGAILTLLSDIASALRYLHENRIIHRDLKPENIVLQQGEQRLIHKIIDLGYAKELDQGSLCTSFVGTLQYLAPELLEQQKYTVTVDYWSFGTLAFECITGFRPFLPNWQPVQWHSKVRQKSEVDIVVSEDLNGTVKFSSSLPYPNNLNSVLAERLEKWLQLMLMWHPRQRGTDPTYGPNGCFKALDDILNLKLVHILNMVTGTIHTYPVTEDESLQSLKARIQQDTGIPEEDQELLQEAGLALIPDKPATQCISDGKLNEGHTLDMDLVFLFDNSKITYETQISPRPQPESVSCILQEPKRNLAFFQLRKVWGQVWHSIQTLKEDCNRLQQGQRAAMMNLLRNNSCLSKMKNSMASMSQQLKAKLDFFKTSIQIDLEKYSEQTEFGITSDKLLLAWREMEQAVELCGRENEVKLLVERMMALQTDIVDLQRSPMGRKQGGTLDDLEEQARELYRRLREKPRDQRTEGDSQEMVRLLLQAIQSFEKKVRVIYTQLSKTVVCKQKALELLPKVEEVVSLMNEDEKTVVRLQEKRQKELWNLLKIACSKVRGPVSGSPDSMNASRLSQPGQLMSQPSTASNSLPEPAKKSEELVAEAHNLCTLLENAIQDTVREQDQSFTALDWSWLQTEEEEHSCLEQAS
Test: IKKβ Resin Enzyme Assay (IKK2 resin)
Assay type: biochemical
From the text: cDNAs of human IKK1 and IKK2 were amplified by reverse transcriptase-polymerase chain reaction from human placental RNA (Clonetech). hIKK1 was subcloned into pFastBac HTa (Life Technologies) and expressed as N-terminal His6-tagged fusion protein. The hIKK2 cDNA was amplified using a reverse oligonucleotide primer which incorporated the peptide sequence for a FLAG-epitope tag at the C-terminus of the IKK2 coding region ([…]). The hIKK2:FLAG cDNA was subcloned into the baculovirus vector pFastBac. The rhIKK2 ([…]) mutant was constructed in the same vector used for wild type rhIKK2 using a QuikChange™ mutagenesis kit (Stratagene). Viral stocks of each construct were used to infect insect cells grown in 40 L suspension culture. […] Cell lysates were stored at −80° C. until purification of the recombinant proteins was undertaken as described below.
A 10-liter culture of baculovirus-expressing IKK2 tagged with FLAG peptide was centrifuged and the cell pellet (MOI=0.1 and I=72 hrs) was re-suspended in buffer A. These cells were microfluidized, and centrifuged at 100,000×g for 45 min. Supernatant was passed over a G-25 column equilibrated with Buffer A. Protein peak was collected and incubated with anti-FLAG affinity resin on a rotator overnight in buffer B. The resin was washed in batch with 10–15 bed volumes of buffer C. Washed resin was poured into a column and rhIKK2 homodimer was eluted using 5 bed volumes of buffer B containing FLAG peptide. 5 mM DTT, 0.1% NP-40 and BSA (concentrated to 0.1% in final amount) was added to the eluted enzyme before concentrating in using an Amicon membrane with a molecular weight cut-off of 30 kDa. Enzyme was aliquoted and stored at −80° C.
IKKβ kinase activity was measured using a biotinylated IκBα peptide ([…]32-Gly-Leu-Asp-Ser36-Met-Lys-Asp-Glu-Glu) (American Peptide Co.). […] ATP (Amersham) (about 1×10^5 cpm), 1 μM ATP (Sigma), 1 mM DTT (Sigma), 2 mM MgCl2 (Sigma), 2 mM MnCl2 (Sigma), 10 mM NaF (Sigma), 25 mM Hepes (Sigma) buffer, pH 7.6 and 20 μl enzyme solution and 10 ul inhibitor in a final volume of 50 μl. After incubation at 25° C. for 30 min, 150 μl resin (Dowex anion-exchange resin AG1X8 200–400 mesh) in 900 mM formate, pH 3.0 was added to each well to stop the reaction. Resin was allowed to settle for one hour and 50 ul of supernatant was removed to a Micolite-2 flat bottom plate (Dynex). 150 μl of scintillation fluid (Microscint 40) (Packard) was added to each well. Incorporation of [γ-^33P] ATP was measured using a Top-Count NXT (Packard).

[1] = Table 4, read-out: IKK2 Resin IC50
[2] = Table 8, read-out: IKK2 Resin IC50
[3] = Table 2, read-out: IKK Resin IC50
[4] = Table 11, read-out: IKK2 Resin IC50
[5] = Table 5, read-out: IKK2 Resin Avg. IC50
[6] = Table 6, read-out: IKK2 Resin IC 50

## NC(=O)c1nn(-c2ccc3c(c2)OCO3)c2c1CCc1ccc(NC(=O)c3cc(Cl)ccc3Cl)cc1-2 [Example 189, 1-(1,3-benzodioxol-5-yl)-8-[(2,5-dichlorobenzoyl)amino]-4,5-dihydro-1H-benzo[g]indazole-3-carboxamide]
[1]
  pIC50: ≥ 6.00

## NC(=O)c1nn(-c2ccc(O)cc2)c2c1CCc1ccc(NC(=O)c3ccccc3Cl)cc1-2 [Example 261, 8-[(2-chlorobenzoyl)amino]-1-(4-hydroxyphenyl)-4,5-dihydro-1H-benzo[g]indazole-3-carboxamide]
[2]
  pIC50: ≥ 6.00

## CCS(=O)(=O)c1ccc(-n2nc(C(N)=O)c3c2-c2cc(NC(=O)c4cc(N)ccc4Cl)ccc2CC3)cc1 [Example 398, 8-[(5-amino-2-chlorobenzoyl)amino]-1-[4-(ethylsulfonyl)phenyl]-4,5-dihydro-1H-benzo[g]indazole-3-carboxamide]
Table 18, read-out: IKK2 Resin IC50
  pIC50: ≥ 6.00

## CS(=O)(=O)c1ccc(-n2nc(C(N)=O)c3c2-c2cc(NC(=O)c4cccc(N)c4Cl)ccc2CC3)cc1 [Example 116, 8-[(3-amino-2-chlorobenzoyl)amino]-1-[4-(methylsulfonyl)phenyl]-4,5-dihydro-1H-benzo[g]indazole-3-carboxamide]
[3]
  pIC50: ≥ 6.00

## CS(=O)(=O)c1ccc(-n2nc(C(N)=O)c3c2-c2cc(NC(=O)c4ccc(N)cc4Cl)ccc2CC3)cc1 [Example 114, 8-[(4-amino-2-chlorobenzoyl)amino]-1-[4-(methylsulfonyl)phenyl]-4,5-dihydro-1H-benzo[g]indazole-3-carboxamide]
[3]
  pIC50: ≥ 6.00

## NC(=O)c1nn(-c2cccc(O)c2)c2c1CCc1ccc(NC(=O)c3ccccc3Cl)cc1-2 [Example 262, 8-[(2-chlorobenzoyl)amino]-1-(3-hydroxyphenyl)-4,5-dihydro-1H-benzo[g]indazole-3-carboxamide]
[2]
  pIC50: ≥ 6.00

## CSc1ccc(-n2nc(C(N)=O)c3c2-c2cc(NC(=O)c4cc5c(cc4Cl)OCO5)ccc2CC3)cc1 [Example 413, 8-{[(6-chloro-1,3-benzodioxol-5-yl)carbonyl]amino}-1-[4-(methylthio)phenyl]-4,5-dihydro-1H-benzo[g]indazole-3-carboxamide]
Table 19, read-out: IKK2 Resin IC50
  pIC50: ≥ 6.00

## CNC(=O)/C=C/c1ccc(-n2nc(C(N)=O)c3c2-c2cc(NC(=O)c4cccnc4Cl)ccc2CC3)cc1 [Example 301, 8-{[(2-chloropyridin-3-yl)carbonyl]amino}-1-{4-[(1E)-3-(methylamino)-3-oxoprop-1-enyl]phenyl}-4,5-dihydro-1H-benzo[g]indazole-3-carboxamide]
[4]
  pIC50: ≥ 6.00

## CS(=O)(=O)/C=C/c1ccc(-n2nc(C(N)=O)c3c2-c2cc(NC(=O)c4ccccc4Cl)ccc2CC3)cc1 [Example 297, 8-[(2-chlorobenzoyl)amino]-1-{4-[(E)-2-(methylsulfonyl)ethenyl]phenyl}-4,5-dihydro-1H-benzo[g]indazole-3-carboxamide]
[4]
  pIC50: ≥ 6.00

## CN(C)CCSc1ccc(Cl)c(C(=O)Nc2ccc3c(c2)-c2c(c(C(N)=O)nn2-c2ccc4c(c2)OCO4)CC3)n1 [Example 218, 1-(1,3-benzodioxol-5-yl)-8-{[(3-chloro-6-{[2-(dimethylamino)ethyl]thio}pyridin-2-yl)carbonyl]amino}-4,5-dihydro-1H-benzo[g]indazole-3-carboxamide]
[5]
  pIC50: ≥ 6.00

## NC(=O)c1nn(-c2ccc3c(c2)OCO3)c2c1CCc1ccc(NC(=O)c3ccncc3Cl)cc1-2 [Example 170, 1-(1,3-benzodioxol-5-yl)-8-[(3-chloroisonicotinoyl)amino]-4,5-dihydro-1H-benzo[g]indazole-3-carboxamide]
[1]
  pIC50: ≥ 6.00

## CS(=O)(=O)c1ccc(-n2nc(C(N)=O)c3c2-c2cc(NC(=O)c4ccc(Cl)cc4N)ccc2CC3)cc1 [Example 117, 8-[(2-amino-4-chlorobenzoyl)amino]-1-[4-(methylsulfonyl)phenyl]-4,5-dihydro-1H-benzo[g]indazole-3-carboxamide]
[3]
  pIC50: ≥ 6.00

## Cc1ccc(C(=O)Nc2ccc3c(c2)-c2c(c(C(N)=O)nn2-c2ccc(S(C)(=O)=O)cc2)CC3)c(Cl)n1 [Example 138, 8-{[(2-chloro-6-methylpyridin-3-yl)carbonyl]amino}-1-[4-(methylsulfonyl)phenyl]-4,5-dihydro-1H-benzo[g]indazole-3-carboxamide]
Table 3, read-out: IKK Resin IC50
  pIC50: ≥ 6.00

## NC(=O)c1nn(-c2cc(F)cc(F)c2)c2c1CCc1ccc(NC(=O)c3cccnc3Cl)cc1-2 [Example 347, 8-{[(2-chloropyridin-3-yl)carbonyl]amino}-1-(3,5-difluorophenyl)-4,5-dihydro-1H-benzo[g]indazole-3-carboxamide]
Table 14, read-out: IKK2 Resin IC50
  pIC50: ≥ 6.00

## CNS(=O)(=O)c1ccc(-n2nc(C(N)=O)c3c2-c2cc(NC(=O)c4ccccc4Cl)ccc2CC3)cc1 [Example 422, 8-[(2-chlorobenzoyl)amino]-1-{4-[(methylamino)sulfonyl]phenyl}-4,5-dihydro-1H-benzo[g]indazole-3-carboxamide]
read-out: IKK-2 resin IC50
  pIC50: ≥ 6.00

## NC(=O)c1nn(-c2ccc(F)cc2)c2c1CCc1ccc(NC(=O)c3ccccc3Cl)cc1-2 [Example 230, 8-[(2-chlorobenzoyl)amino]-1-(4-fluorophenyl)-4,5-dihydro-1H-benzo[g]indazole-3-carboxamide]
[6]
  pIC50: ≥ 6.00

## CC(C)(C)NCC(=O)Nc1ccc2c(c1)-c1c(c(C(N)=O)nn1-c1ccc3c(c1)OCO3)CC2 [Example 450, 1-(1,3-benzodioxol-5-yl)-8-{[N-(tert-butyl)glycyl]amino}-4,5-dihydro-1H-benzo[g]indazole-3-carboxamide]
Table 23, read-out: IKK2 Resin IC50
  pIC50: ≥ 6.00

## CN1CCN(c2ccc(Cl)c(C(=O)Nc3ccc4c(c3)-c3c(c(C(N)=O)nn3-c3ccc5c(c3)OCO5)CC4)n2)CC1 [Example 217, 1-(1,3-benzodioxol-5-yl)-8-({[3-chloro-6-(4-methylpiperazin-1-yl)pyridin-2-yl]carbonyl}amino)-4,5-dihydro-1H-benzo[g]indazole-3-carboxamide]
[5]
  pIC50: ≥ 6.00

## COCC(=O)Nc1ccc(-n2nc(C(N)=O)c3c2-c2cc(NC(=O)c4ccccc4Cl)ccc2CC3)cc1 [Example 374, 8-[(2-chlorobenzoyl)amino]-1-{4-[(methoxyacetyl)amino]phenyl}-4,5-dihydro-1H-benzo[g]indazole-3-carboxamide]
Table 15, read-out: IKK2 Resin IC50
  pIC50: ≥ 6.00

## CS(=O)(=O)c1ccc(-n2nc(C(N)=O)c3c2-c2cc(NC(=O)c4cccc(F)c4F)ccc2CC3)cc1 [Example 101, 8-[(2,3-difluorobenzoyl)amino]-1-[4-(methylsulfonyl)phenyl]-4,5-dihydro-1H-benzo[g]mdazole-3-carboxamide]
[3]
  pIC50: ≥ 6.00

## NC(=O)c1nn(-c2ccc(F)cc2)c2c1CCc1ccc(NC(=O)c3ccc(N)cc3Cl)cc1-2 [Example 232, 8-[(4-amino-2-chlorobenzoyl)amino]-1-(4-fluorophenyl)-4,5-dihydro-1H-benzo[g]indazole-3-carboxamide]
[6]
  pIC50: ≥ 6.00
